Converted amounts (≈) assume the structure as drawn. “And” between values parts separate entries of the source, which are not always exact repeats. Equal values may be shown once. Where a name gives a salt, the structure may show the parent alone.
Columns and labels:
[1] = Equilibration of A-B mixtures of the hydrochloride salt in solvents; type: physicochemical
physchem [2] = conditions: thermodynamic from solid
[3] = Stability studies on storage; type: physicochemical; conditions: for form transition after storage: storage at various relative humidities
[4] = Form conversion on exposure to solvent vapor, air, moisture or room conditions; type: physicochemical; conditions: in the presence of methanol vapor
[5] = Equilibration of hydrochloride forms A, B and C with solvents, XRPD; type: physicochemical
Text: Then the solutions were filtered and the solid part investigated by XRPD.

[6] = Intrinsic dissolution rate (rotating disk); type: physicochemical; conditions: for Intrinsic dissolution rate: 37° C., 200 rpm
Experimental: Intrinsic Dissolution Rate (IDR): Dissolution rate measurements were performed at 37° C. using the rotating disk method (VanKell Instrument). A single rotation speed of 200 rpm was used. For IDR in 0.1N HCl, an 800 mL volume, and for IDR in water, a 200 mL volume were used. The solution was continuously pumped through a UV measuring cell and recycled to the dissolution vessel.
The measurements were carried out on a VanKel instrument using a Cary 100 photometer.

[7] = Solubility by gravimetric techniques at different temperatures, residue by XRPD
[8] = Hygroscopicity (water uptake); type: physicochemical; conditions: 25° C. up to 80% r.h.
[9] = pH of 1% solution or suspension in water; type: physicochemical; conditions: 1% in water; listed as Free base form B
[10] = Equilibration of free base forms with solvents, XRPD; type: physicochemical
Text: The solid part was investigated by XRPD.

physchem [11] = conditions: aqueous buffer solution, pH 2.8, aqueous buffer, thermodynamic from solid
[12] = Thermal properties by TGA and DSC; type: physicochemical
Text: Form A's basic thermal properties were studied by thermogravimetric analysis (TGA) and differential scanning calorimetry (DSC) and are as follows:

[13] = methanol/water (95/5) v/v, 20 °C, organic solvent or mixture
[14] = methanol/water (95/5) v/v, 45 °C, organic solvent or mixture
[15] = methanol/water (95/5) v/v, -10 °C, organic solvent or mixture
[16] = methanol/water (99.5/0.5) v/v, 20 °C, organic solvent or mixture
[17] = methanol/water (99.5/0.5) v/v, 45 °C, organic solvent or mixture
[18] = dissolution medium HCl 0.0001 N
[19] = dissolution medium pH 2 (citrate buffer)
[20] = 0.0001N HCl, 25° C., after 24 hours
[21] = 0.001N HCl, 50° C., after 24 hours
[22] = 0.01N HCl, 25° C., after 24 hours
[23] = 0.1N HCl, 50° C., after 24 hours
[24] = Methanol, 50° C., after 24 hours
[25] = Methanol/Water (95/5) v/v, 20° C., 1 hour
[26] = Methanol/Water (95/5) v/v, 45° C., 1 hour
[27] = Methanol/Water (95/5) v/v, −10° C., 24 hours
[28] = Methanol/Water (99.5/0.5) v/v, 20° C., 10 minutes
[29] = Methanol/Water (99.5/0.5) v/v, 20° C., 1 hour
[30] = Methanol/Water (99.5/0.5) v/v, 45° C., 10 minutes
[31] = Methanol/Water (99.5/0.5) v/v, 45° C., 1 hour
[32] = Methanol/Water (99.5/0.5) v/v, 45° C., 24 hours
[33] = Methanol/Water (99.5/0.5) v/v, −10° C., 10 minutes
[34] = Methanol/Water (99.5/0.5) v/v, −10° C., 1 hour
[35] = 0.001N HCl, 25° C., after 24 hours

With `Cc1cn(-c2cc(NC(=O)c3ccc(C)c(Nc4nccc(-c5cccnc5)n4)c3)cc(C(F)(F)F)c2)cn1` the “Form after equilibration of A-B mixture” value ([1]; Methanol 0.25% water, 24 hours 40° C., ? = extra peak (unclear whether new form or free base)) was “B/?” and the “Form after equilibration of A-B mixture” value ([1]; Methanol 10% water, significant enrichment in A after 12 hours) was “A/B”.

`Cc1cn(-c2cc(NC(=O)c3ccc(C)c(Nc4nccc(-c5cccnc5)n4)c3)cc(C(F)(F)F)c2)cn1` [Form A of the hydrochloride salt] showed a solubility at 24 h (physchem [2]; 0.001N HCl, 25 °C, aqueous buffer) of 0.92 mg/mL, a solubility at 24 h (physchem [2]; 0.01N HCl, 50 °C, simulated gastric fluid) of 0.85 mg/mL and a solubility at 24 h (physchem [2]; 0.1N HCl, 25 °C, simulated gastric fluid) of 1.32 mg/mL. For the same compound, the solubility at 24 h (physchem [2]; methanol, 25 °C, organic solvent or mixture) was 13.8 mg/mL, the solubility at 24 h (physchem [2]; methanol, 50 °C, organic solvent or mixture) was 52.5 mg/mL and the solubility at 10 min (physchem [2]; [13]) was 25.7 mg/mL. For the same compound, the solubility at 24 h (physchem [2]; [13]) was 13.1 mg/mL, the solubility at 10 min (physchem [2]; [14]) was 46.1 mg/mL and the solubility at 1 h (physchem [2]; [14]) was 61.1 mg/mL. For the same compound, the solubility at 10 min (physchem [2]; [15]) was 12.3 mg/mL, the solubility at 1 h (physchem [2]; [15]) was 14.4 mg/mL and the solubility at 10 min (physchem [2]; [16]) was 33.7 mg/mL. The solubility at 24 h (physchem [2]; [16]) was 12.2 mg/mL, the solubility at 10 min (physchem [2]; [17]) was 52.2 mg/mL and the solubility at 1 h (physchem [2]; [17]) was 62.5 mg/mL. For the same compound, the solubility at 24 h (physchem [2]; [17]) was 41.9 mg/mL, the solubility at 24 h (physchem [2]; methanol/water (99.5/0.5) v/v, -10 °C, organic solvent or mixture) was 4.96 mg/mL and the solubility at 24 h (physchem [2]; water, 50 °C) was 1.03 mg/mL. For the same compound, the “form transition after storage” value [3] was “No form transitions were observed”, the form conversion [4] was “converts to form B” and the “form transition on equilibration” value ([5]; methanol, 50° C., 1 day) was “transitioned to a mixture of forms B and C”. For the same compound, the “form transition on equilibration” value ([5]; methanol, one day, 25° C.) was “transitioned to form B”, the “form transition on equilibration” value ([5]; methanol/HCl 0.1N, 50° C., 1 day) was “transitioned to form C” and the “form transition on equilibration” value ([5]; methanol/HCl 0.1N, one day, 25° C.) was “transitioned to form B with a small amount of form C”. The “form transition on equilibration” value ([5]; methanol/water (99:1), 50° C., 1 day) was “transitioned to form C”, the “form transition on equilibration” value ([5]; methanol/water (99:1), one day, 25° C.) was “transitioned to form C with a small amount of form B” and the “form transition on equilibration” value ([5]; methanol/water (99.3:0.7), 50° C., 1 day) was “transitioned to form C”. The “form transition on equilibration” value ([5]; methanol/water (99.3:0.7), one day, 25° C.) was “transitioned to form B with a small amount of form C”, the “Intrinsic Dissolution Rate value” [6, 18] was 0.0003 mg/min/cm^2 and the “Intrinsic Dissolution Rate value” ([6]; dissolution medium HCl 0.001 N) was 0.0089 mg/min/cm^2. For the same compound, the “Intrinsic Dissolution Rate value” ([6]; dissolution medium HCl 0.01 N) was 0.0178 mg/min/cm^2, the “Intrinsic Dissolution Rate value” ([6]; dissolution medium HCl 0.1 N) was 0.6778 mg/min/cm^2 and 1.2467 mg/min/cm^2 and the “Intrinsic Dissolution Rate value” ([6]; dissolution medium Water) was 0.0004 mg/min/cm^2. For the same compound, the “Intrinsic Dissolution Rate value” [6, 19] was 0.0076 mg/min/cm^2, the Solubility [7, 20] was 0.45 mg/mL and the Solubility [7, 21] was 0.79 mg/mL. The Solubility [7, 22] was 0.43 mg/mL, the Solubility [7, 23] was 2.46 mg/mL and the “XRPD (form of the solid)” value [7, 24] was “C + B”. The Solubility [7, 25] was 28.18 mg/mL, the “XRPD (form of the solid)” value [7, 26] was “A + B + C” and the Solubility [7, 27] was 4.74 mg/mL. The “XRPD (form of the solid)” value [7, 28] was “A + B”, the “XRPD (form of the solid)” value [7, 29] was “A + B” and the “XRPD (form of the solid)” value [7, 30] was “A + B”. For the same compound, the “XRPD (form of the solid)” value [7, 31] was “C + B”, the “XRPD (form of the solid)” value [7, 32] was “C + B” and the Solubility [7, 33] was 24.01 mg/mL. For the same compound, the Solubility [7, 34] was 26.37 mg/mL and the Solubility ([7]; Water, 25° C., after 24 hours) was 0.35 mg/mL.

For `Cc1cn(-c2cc(NC(=O)c3ccc(C)c(Nc4nccc(-c5cccnc5)n4)c3)cc(C(F)(F)F)c2)cn1` [Form B of the free base], the hygroscopicity [8] was “not hygroscopic”, the maximum water uptake [8] was “less than 0.2%” and the Intrinsic dissolution rate ([6]; Water, listed as Free base form B) was 0.0013 mg min^−1cm^−2. For the same compound, the Intrinsic dissolution rate ([6]; pH 1 (0.1 N HCl)) was 0.17 mg min^−1cm^−2, the “pH of 1% solution or suspension in water” value [9] was 7.99 and the “form transition on equilibration” value ([10]; seven solvents (methanol, ethanol, 2-propanol, ethyl acetate, acetone, tetrahydrofuran, acetonitrile), at least 48 hours, room temperature) was “No form transition occurred”. The “form transition on equilibration” value ([10]; thirteen solvents, one day, 25° C.) was “No form transitions occurred with the exception of one trial of form B in water”, the Solubility (physchem [11]) was 0.0028 mg/mL (≈ 5.29 µM) and the Decomposition temperature [12] was over 300 °C.

In the case of `Cc1cn(-c2cc(NC(=O)c3ccc(C)c(Nc4nccc(-c5cccnc5)n4)c3)cc(C(F)(F)F)c2)cn1` [Form C of the hydrochloride salt], the form after storage ([3]; 1 month at 80° C. and 75% relative humidity) is reported as “showed a mixture with form A”, the “form transition after storage” value [3] is reported as “No form transitions were observed” and the form conversion [4] is reported as “converts to form B”. For the same compound, the “form transition on equilibration” value ([5]; ethanol/water (99:1), 50° C., 1 day) was “transitioned to a mixture of all three forms”, the “form transition on equilibration” value ([5]; methanol, 50° C., 1 day) was “transitioned to form B” and the “form transition on equilibration” value ([5]; methanol, one day, 25° C.) was “transitioned to form B”. For the same compound, the “form transition on equilibration” value ([5]; tetrahydrofuran, 50° C., 1 day) was “to a mixture of forms B and C”, the “form transition on equilibration” value ([5]; water, 50° C., 1 day) was “transitioned to form A” and the “form transition on equilibration” value ([5]; water, one day, 25° C.) was “transitioned to form A”. The “Intrinsic Dissolution Rate value” [6, 18] was 0.0004 mg/min/cm^2, the “Intrinsic Dissolution Rate value” ([6]; dissolution medium HCl 0.001 N) was 0.0057 mg/min/cm^2 and the “Intrinsic Dissolution Rate value” ([6]; dissolution medium HCl 0.01 N) was 0.0247 mg/min/cm^2. The “Intrinsic Dissolution Rate value” ([6]; dissolution medium HCl 0.1 N) was 0.2323 mg/min/cm^2 and 0.3213 mg/min/cm^2, the “Intrinsic Dissolution Rate value” ([6]; dissolution medium Water) was 0.000 mg/min/cm^2 and the “Intrinsic Dissolution Rate value” [6, 19] was 0.0099 mg/min/cm^2. The Solubility [7, 20] was 1.67 mg/mL, the “XRPD (form of the solid)” value [7, 20] was “C + A” and the Solubility [7, 35] was 1.29 mg/mL. For the same compound, the “XRPD (form of the solid)” value [7, 35] was “C + A”, the Solubility [7, 21] was 6.72 mg/mL and the Solubility [7, 22] was 1.37 mg/mL. The Solubility ([7]; 0.01N HCl, 50° C., after 24 hours) was 1.69 mg/mL, the Solubility ([7]; 0.1N HCl, 25° C., after 24 hours) was 2.35 mg/mL and the Solubility [7, 23] was 8.30 mg/mL. The “XRPD (form of the solid)” value [7, 23] was “A+”, the Solubility ([7]; Methanol, 25° C., after 24 hours) was 18.20 mg/mL and the Solubility [7, 24] was 55.26 mg/mL. The Solubility ([7]; Methanol/Water (95/5) v/v, 20° C., 10 minutes) was 18.88 mg/mL, the Solubility [7, 25] was 13.03 mg/mL and the Solubility ([7]; Methanol/Water (95/5) v/v, 20° C., 24 hours) was 11.76 mg/mL. It also gave a Solubility ([7]; Methanol/Water (95/5) v/v, 45° C., 10 minutes) of 37.68 mg/mL, a Solubility [7, 26] of 31.15 mg/mL and a Solubility ([7]; Methanol/Water (95/5) v/v, 45° C., 24 hours) of 32.26 mg/mL. For the same compound, the Solubility ([7]; Methanol/Water (95/5) v/v, −10° C., 10 minutes) was 9.73 mg/mL, the Solubility ([7]; Methanol/Water (95/5) v/v, −10° C., 1 hour) was 7.74 mg/mL and the Solubility [7, 27] was 11.00 mg/mL. For the same compound, the Solubility [7, 28] was 24.34 mg/mL, the Solubility [7, 29] was 17.70 mg/mL and the “XRPD (form of the solid)” value [7, 29] was “C + B”. The Solubility ([7]; Methanol/Water (99.5/0.5) v/v, 20° C., 24 hours) was 12.09 mg/mL, the Solubility [7, 30] was 39.86 mg/mL and the Solubility [7, 31] was 46.15 mg/mL. The Solubility [7, 32] was 45.59 mg/mL, the “XRPD (form of the solid)” value [7, 32] was “C + B” and the Solubility [7, 33] was 11.91 mg/mL. It also gave a Solubility [7, 34] of 7.99 mg/mL, a Solubility ([7]; Methanol/Water (99.5/0.5) v/v, −10° C., 24 hours) of 6.12 mg/mL and a Solubility ([7]; Water, 25° C., after 24 hours) of 1.47 mg/mL. For the same compound, the “XRPD (form of the solid)” value ([7]; Water, 25° C., after 24 hours) was “C + A” and the Solubility ([7]; Water, 50° C., after 24 hours) was 1.31 mg/mL.

For `Cc1cn(-c2cc(NC(=O)c3ccc(C)c(Nc4nccc(-c5cccnc5)n4)c3)cc(C(F)(F)F)c2)cn1` [form A/form B (1:1)], the “form transition on equilibration” value ([10]; seven solvents (ethanol absolute, methanol, tetrahydrofuran, water, tetrahydrofuran/water, ethanol/water, methanol/water 1:1), one day, 25° C.) was “No form transitions occurred”.

Reference: patent publication US8829015B2 (Novartis AG, priority 2005, dated 2014)
